Source: patent US20080227638A1, “Use of abscisic acid to enhance growth control” (priority 2007, published 2008)

Experiments:
Format in all cases: in vivo
Tall fescue, cv K-31 = experiment: Tall fescue cv K-31 height, ABA and trinexapac-ethyl (Example 6)
Protocol: (§1) Greenhouse studies were conducted at the Research Farm of Valent BioSciences Corporation (Long Grove, Ill.). Grasses were grown in pots (18 cm in diameter and 18 cm in height) filled with Promix BX (available from Premier Horticulture Inc. Quakertown, Pa.). Grass was irrigated daily by an overhead irrigation system. The irrigation system was set up with multiple Tornado Mist Spray Heads (10 GPH at 40 PSI-Wetted diameter, NDS/Raindrip, Woodland Hills, Calif.). Spray heads were 1-meter apart from each other and 75 cm above grass canopy. Grass was cut with a scissor at 2.5 cm height and fertilizer (1 g/L all purpose fertilizer 20-20-20, available from The Scotts Company, Marysville, Ohio) was applied once per week.
(§2) Chemical solutions were prepared with distilled water. Tween 20 (0.05% v/v) was used as an, adjuvant. Both trinexapac-ethyl (commercial product Primo Maxx, 11.3% active ingredient) and paclobutrazol (commercial product Trimmit 2SC, 22.3% active ingredient) were purchased from Syngenta Crop Protection Inc. (Greensboro, N.C.). Uniconazole-P (commercial product Sumagic, 0.55% active ingredient) was obtained from Valent U.S.A. Corporation (Walnut Creek, Calif.).
(§3) When treated with paclobutrazol or uniconazole-P, turfgrass received irrigation within 24 hours after application to flush chemicals to the root zone. After treatment, turfgrasses were arranged in a randomized complete block experimental design. Turfgrass quality, turfgrass height or clip fresh weight was measured on assigned dates. Turfgrass quality was visually rated on a 0-9 scale based on the color, uniformity and density of the grass with 0 as the worst and 9 as the best. Turfgrass height was measured as the distance between canopy surface and soil. Clips were collected from each plot; all plots were cut to a uniform height.
(§4) All experiments were randomized complete block experimental design. Data were analyzed by analysis of variance. Duncan's new multiple range tests at α=0.05 were used for mean separations.

[1] = system: Kentucky bluegrass cv Midnight; experiment: Kentucky bluegrass cv Midnight height, ABA and trinexapac-ethyl (Example 6); settings: 7 days after treatment
Protocol: as §1
Chemical solutions were prepared with distilled water. Tween 20 (0.05% v/v) was used as an, adjuvant. […]
When treated with paclobutrazol or uniconazole-P, turfgrass received irrigation within 24 hours after application to flush chemicals to the root zone. […] Turfgrass quality, turfgrass height or clip fresh weight was measured on assigned dates. […] Turfgrass height was measured as the distance between canopy surface and soil. […]
All experiments were randomized complete block experimental design. Data were analyzed by analysis of variance. […]

Bermudagrass = Bermudagrass clip weight, ABA and uniconazole-P (Example 7); settings: 200 ppm ABA; 7 days after treatment
Protocol: as §2, §3, §4

Kentucky bluegrass [2] = experiment: Greenhouse Kentucky bluegrass height, ABA and uniconazole-P (Example 3); settings: 200 ppm ABA
Protocol: as §1, §2, §3, §4
Kentucky bluegrass sod (unknown variety) was purchased from Deak sod farms, Inc. (Union Grove, Wis.). Grass was grown in the greenhouse in pots (n=6 pots per treatment) for establishment before treatment. […] Tween 20 (0.05% w/v) was included as an adjuvant. The turfgrass was cut every 7 days.

creeping bentgrass = experiment: Golf course green creeping bentgrass height, clip weight and quality, ABA and uniconazole-P (Example 5); settings: 200 ppm ABA
Protocol: Field studies were conducted at the nursery green or the practice green at Countryside golf course (Mundelein, Ill.). Both greens were sand based and growing Penncross creeping bentgrass. Grass was managed with typical Illinois golf course management practices.
as §2, §3, §4
Tween 20 (0.05% w/v) was included as an adjuvant.

Kentucky bluegrass [3] = experiment: Greenhouse Kentucky bluegrass height and quality, ABA and paclobutrazol (Example 2); settings: 200 ppm ABA
Protocol: as §1, §2, §3, §4
Kentucky bluegrass sod (unknown variety) was purchased from Deak sod farms, Inc. (Union Grove, Wis.). Grass was grown in the greenhouse in pots (n=6 pots per treatment) for establishment before treatment. […] Turfgrass quality was evaluated at 7 days after treatment, and turfgrass height was measured at 7 and 28 days after treatment. Tween 20 (0.05% w/v) was included as an adjuvant. The turfgrass canopy was cut every 7 days during the experimental period.

Compound	Turfgrass height (Tall fescue, cv K-31; 80 ppm trinexapac-ethyl, 7 days after treatment) [cm]	Turfgrass height (Tall fescue, cv K-31; 80 ppm trinexapac-ethyl, 21 days after treatment) [cm]	Turfgrass height (Tall fescue, cv K-31; 160 ppm trinexapac-ethyl, 7 days after treatment) [cm]	Turfgrass height (Tall fescue, cv K-31; 160 ppm trinexapac-ethyl, 21 days after treatment) [cm]	Turfgrass height ([1]; 80 ppm trinexapac-ethyl) [cm]	Turfgrass height ([1]; 160 ppm trinexapac-ethyl) [cm]	Clip weight (Bermudagrass) [g]	Turfgrass height (Kentucky bluegrass [2]; 7 days after treatment) [cm]	Turfgrass height (Kentucky bluegrass [2]; 42 days after treatment) [cm]	Clip weight (creeping bentgrass; 7 days after treatment) [g]	Turfgrass height (creeping bentgrass; 7 days after treatment) [cm]	Clip weight (creeping bentgrass; 49 days after treatment) [g]	Turfgrass height (creeping bentgrass; 49 days after treatment) [cm]	Turfgrass height (Kentucky bluegrass [3]; 7 days after treatment) [cm]	Turfgrass height (Kentucky bluegrass [3]; 28 days after treatment) [cm]
CCOC(=O)C1CC(=O)C(=C(O)C2CC2)C(=O)C1 (stereo not drawn) [trinexapac-ethyl]	11.8	19.8	9.7	20.1	7.6	6.7	–	–	–	–	–	–	–	–	–
S-abscisic acid [ABA]	–	–	–	–	–	–	1.8	12.3	9.4	2.0	5.0	2.7	4.6	11.7	9.7
